Laboratory results as given in patent publication US20110144331A1, “Cinnoline Compounds for the Treatment of Anxiety, Cognitive and Mood Disorders” (AstraZeneca AB, priority 2005, published 2011).

Key:
[1] = molecular target: human Melatonin receptor 1 (MT1) (Homo sapiens, UniProt P48039); test: MT1 GTPγ35S-SPA Assay (Method II); conditions: compound used for normalization
Description: Solid compounds were solubilized at 10 mM in DMSO; then 1:3 further diluted in DMSO in 96-well U-bottom plates using PlateMate on the assay day. 2 μl of diluted compounds were transferred to Opti-assay-plates.
The cell pellets were homogenized using Polytron; and the cell membranes were prepared fro GTPγS assay.
The cell pellets were homogenized with Polytron in ice-cold buffer: 20 mM HEPES, 3 mM MgCl2, 1 mM EGTA, pH7.4. (Freshly add protease inhibitor cocktail tables from Roche). The samples were centrifuged at 18,500 rpm for 30 mins at 4° C. in Sorvall SS-34 rotor. The membrane pellets were collected and washed with the ice-cold buffer. The samples were centrifuged at 18,500 rpm for 30 mins at 4° C. again. The membranes were resuspended in the ice-cold buffer with protease inhibitors. The protein concentration of the membrane was determined. The membranes were aliquoted and stored at −80° C.
Human MT1/HEK293 F membrane (10 μg/well) was mixed with WGA-SPA beads (300 μg/well) and GDP (10 μM) in certain volume of Lazareno assay buffer (20 mM HEPES, 100 mM NaCl, 10 mM MgCl2, pH7.4). […] The assay plates were measured in TopCount to capture the data within 4 hours. […]
Compounds were evaluated for their agonist potency (EC50) and efficacy (Emax). […] Compound's % activity was calculated according to the 100% and 0% activities defined on the same plate as the sample data. […]

MT1 Receptor = MT1 Receptor (Homo sapiens, UniProt P48039); test: MT1 Receptor Binding
[2] = molecular target: T1, human α2β3γ2 GABAA receptor (Homo sapiens, UniProt P18507+P47869); test: Two-electrode voltage-clamp in Xenopus oocytes, potentiation of GABA EC10 current, GABAA2; format: cell-based; conditions: percentage potentiation of GABA EC10 current divided by that of diazepam control
T1 construct: expressed in transfected cells; host or cells: Xenopus laevis oocytes injected with capped cRNA (α:β:γ 1:1:1)
T1 sequence (P47869 29-451): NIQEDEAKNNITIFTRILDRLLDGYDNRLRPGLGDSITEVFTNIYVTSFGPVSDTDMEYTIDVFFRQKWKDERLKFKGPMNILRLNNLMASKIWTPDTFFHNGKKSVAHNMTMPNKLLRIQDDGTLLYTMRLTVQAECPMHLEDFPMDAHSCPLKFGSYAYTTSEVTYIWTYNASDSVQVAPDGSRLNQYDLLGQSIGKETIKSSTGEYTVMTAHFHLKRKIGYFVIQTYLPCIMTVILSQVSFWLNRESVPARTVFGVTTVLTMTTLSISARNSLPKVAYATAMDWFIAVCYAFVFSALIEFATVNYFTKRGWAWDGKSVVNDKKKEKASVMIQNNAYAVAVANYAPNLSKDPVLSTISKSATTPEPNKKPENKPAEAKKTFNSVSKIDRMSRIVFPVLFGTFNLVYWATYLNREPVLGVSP
T1 sequence (P18507 40-475): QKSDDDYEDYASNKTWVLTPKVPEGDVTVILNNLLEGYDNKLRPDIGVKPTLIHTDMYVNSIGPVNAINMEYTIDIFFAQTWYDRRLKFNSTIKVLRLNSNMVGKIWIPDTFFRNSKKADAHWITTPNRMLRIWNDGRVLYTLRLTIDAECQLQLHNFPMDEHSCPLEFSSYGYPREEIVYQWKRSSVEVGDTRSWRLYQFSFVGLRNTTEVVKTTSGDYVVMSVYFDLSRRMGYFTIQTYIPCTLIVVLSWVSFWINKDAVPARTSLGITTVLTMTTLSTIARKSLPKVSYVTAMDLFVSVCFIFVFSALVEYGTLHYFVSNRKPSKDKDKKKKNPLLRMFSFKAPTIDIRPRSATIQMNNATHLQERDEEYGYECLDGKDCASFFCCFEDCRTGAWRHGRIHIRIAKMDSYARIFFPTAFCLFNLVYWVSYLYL
T1 sequence (P28472 26-473 partner): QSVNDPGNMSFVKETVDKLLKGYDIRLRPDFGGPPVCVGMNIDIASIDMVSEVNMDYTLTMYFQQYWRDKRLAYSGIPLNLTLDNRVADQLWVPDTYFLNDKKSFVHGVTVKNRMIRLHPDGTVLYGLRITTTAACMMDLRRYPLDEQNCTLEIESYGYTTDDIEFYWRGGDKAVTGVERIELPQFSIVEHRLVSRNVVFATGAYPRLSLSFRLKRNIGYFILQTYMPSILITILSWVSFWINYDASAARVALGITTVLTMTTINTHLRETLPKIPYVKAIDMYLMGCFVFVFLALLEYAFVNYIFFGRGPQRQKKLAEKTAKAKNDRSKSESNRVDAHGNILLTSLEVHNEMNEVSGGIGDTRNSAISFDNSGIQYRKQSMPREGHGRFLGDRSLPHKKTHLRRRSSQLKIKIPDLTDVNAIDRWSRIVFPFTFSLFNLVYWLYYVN
Description: (§1) GABAA receptors were heterologously expressed in Xenopus oocytes by injecting cRNA corresponding to human α1, α2, α3, α5, β2, β3 and γ2 subunits of the GABAA receptor genes. The specific subunit combinations (subtypes) were as follows: α1β2γ2, α2β3γ2, α3β3γ2, and α5β3γ2. The EC10 of GABA was approximated for each cell. Stability of GABA-mediated (EC10) current was established. Modulatory effect of test compound was determined and compared across subtypes. […] Thus, the assay can characterize modulatory effects and determine subtype selectivity of test compounds on major subtypes of GABAA receptors.
(§2) Surgically removed ovarian lobes were teased out in OR2 solution (82 NaCl, 2.5 KCl, 5 HEPES, 1.5 NaH2PO4, 1 MgCl2, 0.1 EDTA, in mM, pH 7.4). The oocytes were defolliculated by incubation in 25 mL OR2 containing 0.2% collagenase 1A (SIGMA) two times for about 60 minutes on a platform shaker and stored in Leibovitz's L-15 medium. Oocytes were injected the following day in 0.5× Leibovitz's L-15 medium containing […] gentamycin, 10 units/ml penicillin, and […] streptomycin.
(§3) Capped cRNAs from the linearized vectors containing human α1, β2 and γ2 subunits of the GABAA receptor genes were mixed in ratio of 1:1:30. Oocytes were injected with 25-50 nL of mixed RNA with an appx molar ratio for α1, β2, and γ2 as 1:1:10. Oocyte recordings were done 2-10 days after injection. The same methods apply to subtypes derived from α2β2γ2, α3β3γ2, and α5β3γ2, except for 1:1:1 ratio was used for α, β, and γ subunits.
(§4) All measurements were done in a medium containing ND-96 (96 NaCl, 2 KCl, 1.8 CaCl2.2H2O, 1 MgCl2.6H2O, 5 HEPES, in mM, pH 7.5). Two-electrode voltage-clamp recording was carried out using OpusXpress amplifier (Axon Instruments, Foster City, Calif.), which allows simultaneous recording from 8 oocytes. Oocytes were impaled with two electrodes of 1-2 MΩ tip resistance when filled with 3M KCl. Recordings were begun when membrane potential became stable at potentials negative to −50-−60 mV. Membrane potential was held at −60 mV. […] The concentration of GABA corresponded to the EC10 value calculated for each oocyte. The modulator pulses started 30 s before the GABA pulse so as to allow preincubation with the modulator. A set of 3 pulses with just GABA without modulator was given prior to the modulator-containing pulses to define the baseline GABA response. Two oocytes per each experiment were dedicated to observe the effect of diazepam on GABA response to ensure the presence of γ2 subunit in the GABAA pentameric complex, which imparts diazepam sensitivity to the complex.
(§5) Current amplitude (i) was measured from baseline to peak using Clampfit (Axon Inst., Foster City, Calif.). Potentiation was calculated as percent change from the baseline GABA current flux 100×(imod/icontrol)−1) where imod=current mediated by modulator+GABA and icontrol=current mediated by GABA alone. […] Similarly, a value of −50% potentiation means the presence of modulator caused a 50% decrease in the control current. Various other data shown here were fitted and plotted using GraphPad Prism (GraphPad Software, Inc. San Diego, Calif.). The percentage potentiation was converted to relative potentiation by dividing it with percentage potentiation value obtained from the same assay with diazepam as a control.

[3] = molecular target: T2, human α1β2γ2 GABAA receptor (Homo sapiens, UniProt P14867+P18507); test: Two-electrode voltage-clamp in Xenopus oocytes, potentiation of GABA EC10 current, GABAA1; format: cell-based; conditions: percentage potentiation of GABA EC10 current divided by that of diazepam control
T2 construct: expressed in transfected cells; host or cells: Xenopus laevis oocytes injected with capped cRNA
T2 sequence (P14867 28-456): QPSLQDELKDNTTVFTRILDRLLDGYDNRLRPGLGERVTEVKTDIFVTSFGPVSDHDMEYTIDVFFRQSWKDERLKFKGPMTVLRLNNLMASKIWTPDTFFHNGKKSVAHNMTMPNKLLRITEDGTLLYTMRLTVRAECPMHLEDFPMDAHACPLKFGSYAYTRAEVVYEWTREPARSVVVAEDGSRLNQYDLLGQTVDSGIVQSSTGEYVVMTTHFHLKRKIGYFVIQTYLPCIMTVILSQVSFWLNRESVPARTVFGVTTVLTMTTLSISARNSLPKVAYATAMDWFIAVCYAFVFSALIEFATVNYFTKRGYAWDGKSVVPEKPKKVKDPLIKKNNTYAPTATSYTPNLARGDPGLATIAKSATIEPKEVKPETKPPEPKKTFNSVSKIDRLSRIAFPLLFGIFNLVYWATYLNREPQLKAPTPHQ
T2 sequence (P47870 25-512 partner limits assumed): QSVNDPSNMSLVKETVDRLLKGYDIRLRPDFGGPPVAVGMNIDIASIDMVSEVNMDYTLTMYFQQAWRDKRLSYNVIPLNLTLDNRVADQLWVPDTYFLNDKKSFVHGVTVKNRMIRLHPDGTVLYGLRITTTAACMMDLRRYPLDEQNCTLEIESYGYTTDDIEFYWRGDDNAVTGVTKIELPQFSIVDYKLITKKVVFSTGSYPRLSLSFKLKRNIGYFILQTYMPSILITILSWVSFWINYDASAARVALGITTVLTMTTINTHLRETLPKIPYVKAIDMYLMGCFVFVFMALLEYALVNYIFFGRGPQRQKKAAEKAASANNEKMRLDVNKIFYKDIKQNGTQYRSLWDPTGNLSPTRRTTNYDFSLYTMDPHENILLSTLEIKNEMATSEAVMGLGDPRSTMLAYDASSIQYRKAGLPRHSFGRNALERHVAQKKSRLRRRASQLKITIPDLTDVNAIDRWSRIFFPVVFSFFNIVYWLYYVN
T2 sequence (P18507 40-475): as the sequence (P18507 40-475) above
Description: as §1, §2, §3, §4, §5

Sequence of MT1 Receptor (P48039 whole entry): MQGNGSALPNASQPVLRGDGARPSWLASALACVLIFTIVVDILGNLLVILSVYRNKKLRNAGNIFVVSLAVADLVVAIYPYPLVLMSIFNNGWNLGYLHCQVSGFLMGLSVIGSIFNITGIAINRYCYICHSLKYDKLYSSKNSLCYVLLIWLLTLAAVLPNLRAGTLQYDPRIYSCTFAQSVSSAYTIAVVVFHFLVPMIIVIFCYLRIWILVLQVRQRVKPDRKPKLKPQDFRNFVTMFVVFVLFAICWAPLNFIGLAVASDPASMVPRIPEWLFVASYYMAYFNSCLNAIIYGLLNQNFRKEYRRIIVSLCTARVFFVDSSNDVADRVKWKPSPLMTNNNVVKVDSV
Sequence of human Melatonin receptor 1 (MT1) (P48039 whole entry): as above

## COc1ccc2[nH]c(I)c(CCNC(C)=O)c2c1 [2-Iodomelatonin]
[1]
  EC100 concentration: 3 nM

## CCCNC(=O)c1nnc2c(-c3cnccc3OC)cccc2c1N
MT1 Receptor
  inhibition at 1 µM: 82%

## CCCNC(=O)c1nnc2c(-c3c(F)cccc3OC)cccc2c1N [drawing 423]
MT1 Receptor
  inhibition at 1 µM: 89%

## CCCNC(=O)c1nnc2c(-c3cccnc3F)cccc2c1N
[2]
  Relative Potentiation for GABAA2: 0.17
[3]
  Relative Potentiation for GABAA1: −0.083

## CCCNC(=O)c1nnc2c(-c3cc(C(F)(F)F)ccc3Cl)cccc2c1N
[2]
  Relative Potentiation for GABAA2: 0.59
[3]
  Relative Potentiation for GABAA1: 0.47

## CCCNC(=O)c1nnc2c(-c3ccc(OC(F)(F)F)cc3)cccc2c1N
[2]
  Relative Potentiation for GABAA2: 0.04
[3]
  Relative Potentiation for GABAA1: 0.32
